# From patent US20070010669A1, “Novel class of cytodifferentiating agents and histone deacetylase inhibitors, and methods of use thereof” (priority 1999, published 2007)
# pIC50: −log10 of the molar value. Read-outs that look alike come from different tables or passages of the source.
# Key:
# [1] = target: affinity purified human epitope-tagged (Flag) HDAC1 (Homo sapiens, UniProt Q13547); assay: Histone Deacetylase (HDAC) enzymatic activity, [3H]acetyl-labeled histone substrate; format: biochemical; parameters: Flag
# Chain of affinity purified human epitope-tagged (Flag) HDAC1 (Q13547 whole entry): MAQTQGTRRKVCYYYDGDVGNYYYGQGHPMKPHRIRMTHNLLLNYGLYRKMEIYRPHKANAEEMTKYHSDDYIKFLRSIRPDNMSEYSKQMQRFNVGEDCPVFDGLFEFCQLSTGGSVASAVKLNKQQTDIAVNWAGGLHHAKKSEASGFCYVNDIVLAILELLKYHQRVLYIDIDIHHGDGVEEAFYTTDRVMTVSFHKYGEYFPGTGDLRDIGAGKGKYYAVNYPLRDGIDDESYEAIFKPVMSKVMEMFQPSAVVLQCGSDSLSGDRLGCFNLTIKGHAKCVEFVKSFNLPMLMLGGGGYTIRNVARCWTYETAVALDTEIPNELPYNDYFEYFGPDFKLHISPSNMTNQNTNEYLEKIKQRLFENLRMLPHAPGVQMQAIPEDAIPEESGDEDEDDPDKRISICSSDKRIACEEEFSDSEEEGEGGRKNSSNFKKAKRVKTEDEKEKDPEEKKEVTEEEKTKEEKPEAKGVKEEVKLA
# Procedure: (§1) Substrate ([^3H]acetyl-labeled murine erythroleukemia cell-derived histone) was added and the samples were incubated for 20 min at 37° C. in a total volume of 30 μl. The reaction were then stopped and released acetate was extracted and the amount of radioactivity released determined by scintillation counting.
# as §1, with “Substrate ([^3H]acetyl-labelled” for “Substrate ([^3H]acetyl-labeled”, “The reactions” for “The reaction”, “and relaesed” for “and released”
# as §1, with “([^3H]acetyl-labelled” for “([^3H]acetyl-labeled”, “reactions” for “reaction”
# The effect was assayed by incubating the enzyme preparation in the absence of substrate on ice for 20 minutes with the indicated amounts of compound. Substrate([^3H]acetyl-labeled murine erythroleukemia cell-derived histones) was added and the samples were incubated for 20 minutes at 37° C. in a total volume of 30 μl. The reactions were then stopped and released acetate was extracted and the amount of radioactivity released determined by scintillation counting.
# [2] = tested on: Murine erythroleukemia (MEL) cells; assay: MEL cell differentiation assay (benzidine assay; cell growth by Coulter Counter); format: cell-based; settings: for MEL Diff % B+ / MEL Diff Cells/ml × 10^−5: Table 2; for concentration able to induce MEL cell differentiation: FIGS. 1, 3, 4, 6; for concentration able to induce MEL cell differentiation / MEL Differentiation Opt.: 5-day culture; for MEL Differentiation % B+ / MEL Differentiation Opt.: Table 1; for MEL Differentiation % B+: benzidine-positive cells at Opt. concentration; for MEL Differentiation Opt.: optimal concentration; for MEL Diff Cells/ml × 10^−5: cell growth
# Procedure: (§2) The MEL cell differentiation assay was used to assess the ability of Compound 1 to induce terminal differentiation. MEL cells (logarithmically dividing) were cultured with the indicated concentrations of Compound 1. Following a 5-day culture period, cell growth was determined using a Coulter Counter and differentiation was determined microscopically using the benzidine assay to determine hemoglobin protein accumulation on a per cell basis.
# as §2, with “2” for “1”, “2.” for “1.”, “period” for “period, cell growth was determined using a Coulter Counter and”
# as §2, with “3” for “1”, “3.” for “1.”, “period” for “period, cell growth was determined using a Coulter Counter and”, “microsdopically” for “microscopically”
# as §2, with “4” for “1”, “4.” for “1.”, “period” for “period, cell growth was determined using a Coulter Counter and”
# All the compounds which were prepared were tested. […] Table 2 is compiled from experiments similar to the experiments described in Examples 7-10 above.
# [3] = target: HDAC (Homo sapiens, UniProt Q13547); assay: Inhibition of the enzyme HDAC (Examples 12 and 13); format: biochemical; settings: Example 12; read-out: ID50 as inhibitor of HDAC
# Chain of HDAC (Q13547 whole entry): as above
# [4] = Table 2, unit nM, read-out: HDAC inh ID50
# [5] = FIGS. 2, 5, 7, read-out: ID50 of HDAC1 enzymatic activity
# [6] = Table 2, unit column μm, read-out: HDAC inh ID50
# [7] = Table 2, unit μM, read-out: HDAC inh ID50
SMILES,"IC50 [1, 4]",MEL Diff % B+ [2],MEL Diff Cells/ml × 10^−5 [2],further results
"O=C(CCCCC[C@H](NC(=O)c1cccnc1)C(=O)Nc1ccccc1)NO (stereo in doubt) [Compound 2, N-Nicotinoyl-(L)-α-aminosuberoylanilide-ω-hydroxamic acid]",50 nM,27%,,
"O=C(CCCCC[C@H](NC(=O)c1ccccc1)C(=O)Nc1ccccc1)NO [Compound 1, N-Benzoyl-(L)-α-aminosuberoylanilide-ω-hydroxamic acid]",,44%,9 Cells/ml × 10^−5,"pIC50 [1, 5]: 9.00; concentration able to induce MEL cell differentiation [2]: 200 nM; MEL Differentiation % B+ [2]: 44%; MEL Differentiation Opt. [2]: 200 nM"
"O=C(CCCCC[C@H](NC(=O)c1cccnc1)C(=O)Nc1ccccc1)NO [Compound 2, N-Nicotinoyl-(L)-α-aminosuberoylanilide-ω-hydroxamic acid]",,,,concentration able to induce MEL cell differentiation [2]: 800 nM; MEL Differentiation % B+ [2]: 27%; MEL Differentiation Opt. [2]: 800 nM
"O=C(CCCCCC(NC(=O)OCc1ccccc1)C(=O)Nc1ccccc1)NO (stereo not drawn) [Compound 3, N-benzyloxycarbonyl-(L)-α-aminosuberateanilide-ω-hydroxamic acid]",100 nM,16%,3.3 Cells/ml × 10^−5,
"O=C(CCCCC[C@H](NC(=O)OCc1ccccc1)C(=O)Nc1ccccc1)NO [Compound 3, N-benzyloxycarbonyl-(L)-α-aminosuberateanilide-ω-hydroxamic acid]",,,,"pIC50 [1, 5]: 7.00; concentration able to induce MEL cell differentiation [2]: 400 nM; MEL Differentiation % B+ [2]: 16%; MEL Differentiation Opt. [2]: 400 nM"
O=C(CCCCCC(C(=O)Nc1cccc2cccnc12)C(=O)Nc1cccc2cccnc12)NO [Compound 7],,,,pIC50 [3]: 7.30
"O=C(/C=C/c1cccc(C(C(=O)Nc2ccccc2)C(=O)Nc2ccccc2)c1)NO [Compound 77, 3-(malonyldi(phenylamide)) cinnamyl hydroxamic acid]",,9%,9.0 Cells/ml × 10^−5,
O=C(O)CCCCC[C@@H](NC(=O)c1ccccc1)C(=O)Nc1ccccc1 [Compound 656],,0%,,"pIC50 [1, 6]: < 4.00"
O=C(O)CCCCC[C@@H](NC(=O)c1cccnc1)C(=O)Nc1ccccc1 [Compound 657],,0%,,"pIC50 [1, 6]: < 4.00"
O=C(O)CCCCCC(NC(=O)OCc1ccccc1)C(=O)Nc1cccc2cccnc12 (stereo not shown) [Compound 659],,0%,,"IC50 [1, 7]: 10000 nM"
O=C(CCCCC[C@@H](NC(=O)c1ccccc1)C(=O)Nc1cccc2cccnc12)NO [Compound 661],20 nM,7%,,
CS(=O)(=O)NCCCCCC(=O)Nc1ccccc1 [Compound 662],,0%,,"IC50 [1, 7]: > 100000 nM"
O=C(CCCCC[C@@H](NC(=O)c1ccccc1)NC(=O)C1CCCCC1)NO [Compound 663],100 nM,43%,7 Cells/ml × 10^−5,
O=C(CCCCC[C@H](NC(=O)c1cnc2ccccc2c1)C(=O)Nc1ccccc1)NO [Compound 664],50 nM,33%,22 Cells/ml × 10^−5,
O=C(CCCCC[C@H](NC(=O)c1cccs1)C(=O)Nc1ccccc1)NO [Compound 665],50 nM,24%,30 Cells/ml × 10^−5,
O=C(CCCCCC(C(=O)Nc1ccccc1)C(=O)Nc1ccccc1)NO [Compound 666],100 nM,31%,28 Cells/ml × 10^−5,
O=C(CCCCCC(C(=O)Nc1cccc2cccnc12)C(=O)Nc1cccc2cccnc12)NO [Compound 667],50 nM,27%,2 Cells/ml × 10^−5,
O=C(CCCCCCC(=O)Nc1cccc2cccnc12)NO [Compound 668],100 nM,11%,4.7 Cells/ml × 10^−5,
O=C(Nc1ccccc1)C(CCCCCC(=O)C(F)(F)F)C(=O)Nc1ccccc1 [Compound 669],,11%,16.0 Cells/ml × 10^−5,"IC50 [1, 7]: 10000 nM"
O=C(CCCCCCC(=O)C(F)(F)F)Nc1ccccc1 [Compound 670],,,13.0 Cells/ml × 10^−5,
CN(C)c1cccc2cc(S(=O)(=O)NCCCCCC(=O)NO)ccc12 [Compound 671],200 nM,35%,12.5 Cells/ml × 10^−5,

SMILES,"IC50 [1, 4]",MEL Diff % B+ [2],MEL Diff Cells/ml × 10^−5 [2],further results
COP(=O)(NCCCCCC(=O)Nc1ccccc1)OC [Compound 673],,0%,No inh,
OC(c1ncc[nH]1)(c1ncc[nH]1)c1nc(CCCCCc2cnc(C(O)(c3ncc[nH]3)c3ncc[nH]3)[nH]2)c[nH]1 [Compound 674],,0%,Dead at 25 μM,"IC50 [1, 7]: 50000 nM"
CC(=O)SCCCCCC(=O)Nc1ccccc1 [Compound 675],,0%,No inh,"IC50 [1, 7]: > 100000 nM"
O=C(CCCCCBr)Nc1ccccc1 [Compound 676],,0%,No inh,
O=C(CCCCCC(C(=O)Nc1cnc2ccccc2c1)C(=O)Nc1cnc2ccccc2c1)NO [Compound 677],5 nM,23%,4.5 Cells/ml × 10^−5,
NS(=O)(=O)CCCCCC(=O)Nc1ccccc1 [Compound 678],,0%,No inh,"IC50 [1, 7]: > 100000 nM"
O=C(CCCCCn1ccnc1)Nc1ccccc1 [Compound 679],,0%,No inh,"IC50 [1, 7]: > 100000 nM"
CC(=O)SCCCCCCCC(=O)Nc1ccccc1 [Compound 680],,,,"IC50 [1, 7]: > 100000 nM"
O=C(CCCCCC(C(=O)Nc1cccc2cccnc12)(C(=O)Nc1cccc2cccnc12)c1ccccc1)NO [Compound 681],200 nM,3%,2.5 Cells/ml × 10^−5,
O=C(CCCCCC(C(=O)Nc1ccccc1)(C(=O)Nc1ccccc1)c1ccccc1)NO [Compound 682],150 nM,8%,1.1 Cells/ml × 10^−5,
O=C(CCCCCCn1ccnc1)Nc1ccccc1 [Compound 684],,0%,No inh,
O=C(CCCCCC(CCCCCC(=O)NO)(C(=O)Nc1cccc2cccnc12)C(=O)Nc1cccc2cccnc12)NO [Compound 685],150 nM,20%,1.0 Cells/ml × 10^−5,
NS(=O)(=O)CCCCCCC(=O)Nc1ccccc1 [Compound 686],,0%,No inh,
O=C(/C=C/c1cccc(C(=O)Nc2ccccc2)c1)NO [Compound 687],,0%,No inh,"IC50 [1, 7]: 200000 nM"
O=C(CCCCCCC(=O)Nc1cc[nH]n1)Nc1ccccc1 [Compound 688],,0%,No inh,"IC50 [1, 7]: > 100000 nM"
O=C(/C=C/c1cccc(CC(=O)Nc2ccccc2)c1)NO [Compound 689],200 nM,48%,,
O=C(/C=C/c1cccc(C(C(=O)Nc2cccc3cccnc23)C(=O)Nc2cccc3cccnc23)c1)NO [Compound 690],150 nM,38%,,
O=C(CCCCCC(C(=O)Nc1cccc2ncccc12)C(=O)Nc1cccc2ncccc12)NO [Compound 691],100 nM,0%,No inh,
O=C(CCCCCC(C(=O)Nc1ccc2ncccc2c1)C(=O)Nc1ccc2ncccc2c1)NO [Compound 692],,27%,,
O=C(CCCCCCC(=O)Nc1nccs1)Nc1ccccc1 [Compound 693],,0%,No inh,"IC50 [1, 7]: > 100000 nM"
